The values below come from PubChem BioAssay AID1259407 (Chemical Carcinogenesis Research Information System (CCRIS), 2018).

Each structure is given as a SMILES string. The source made the active and inactive calls. The rule behind the calls is not given here.

This data set relates to CCRIS mutagenicity, Ames/micronucleus/aberration tests. As to the kind of experiment: CCRIS mutagenicity studies. The settings on record: Test System: AMES SALMONELLA TYPHIMURIUM
Setting [1] is: Strain/Indicator: TA98, Metabolic Activation: NONE, Method: PREINCUBATION
Setting [2] is: Strain/Indicator: TA100, Metabolic Activation: NONE, Method: PREINCUBATION
The mark [3] stands for this setting: Strain/Indicator: TA1535, Metabolic Activation: NONE, Method: PREINCUBATION
[4] abbreviates: Strain/Indicator: TA1537, Metabolic Activation: NONE, Method: PREINCUBATION

For `O=C(Cl)c1ccccc1F`, the mutagenic call is “active; positive” (Strain/Indicator: TA98, Metabolic Activation: HAMSTER, LIVER, S-9, AROCLOR 1254, Method: PREINCUBATION); “inactive; negative” under setting [1]; “active; positive” (Strain/Indicator: TA98, Metabolic Activation: RAT, LIVER, S-9, AROCLOR 1254, Method: PREINCUBATION); “active; positive” (Strain/Indicator: TA100, Metabolic Activation: HAMSTER, LIVER, S-9, AROCLOR 1254, Method: PREINCUBATION); “inactive; negative” under setting [2]; “active; positive” (Strain/Indicator: TA100, Metabolic Activation: RAT, LIVER, S-9, AROCLOR 1254, Method: PREINCUBATION). Further, the mutagenic call is “inactive; negative” (Strain/Indicator: TA1535, Metabolic Activation: HAMSTER, LIVER, S-9, AROCLOR 1254, Method: PREINCUBATION); “inactive; negative” under setting [3]; “inactive; negative” (Strain/Indicator: TA1535, Metabolic Activation: RAT, LIVER, S-9, AROCLOR 1254, Method: PREINCUBATION); “inactive; negative” (Strain/Indicator: TA1537, Metabolic Activation: HAMSTER, LIVER, S-9, AROCLOR 1254, Method: PREINCUBATION); “inactive; negative” under setting [4]; “inactive; negative” (Strain/Indicator: TA1537, Metabolic Activation: RAT, LIVER, S-9, AROCLOR 1254, Method: PREINCUBATION).

On to `CCCCCCCCCCCCC/C([O-])=N/[N+](C)(C)CC(C)O` (stereo unspecified), for which the mutagenic call by setting is: (Strain/Indicator: TA97, Metabolic Activation: HAMSTER, LIVER, S-9, AROCLOR 1254 (10 OR 30%), Method: PREINCUBATION) “inactive; negative”; (Strain/Indicator: TA97, Metabolic Activation: NONE, Method: PREINCUBATION) “inactive; negative”; (Strain/Indicator: TA97, Metabolic Activation: RAT, LIVER, S-9, AROCLOR 1254 (10 OR 30%), Method: PREINCUBATION) “inactive; negative”; (Strain/Indicator: TA98, Metabolic Activation: HAMSTER, LIVER, S-9, AROCLOR 1254 (10%), Method: PREINCUBATION) “inactive; negative”; (Strain/Indicator: TA98, Metabolic Activation: HAMSTER, LIVER, S-9, AROCLOR 1254 (30%), Method: PREINCUBATION) “inactive; negative”; under setting [1], “inactive; negative”. For the same compound, the mutagenic call was “inactive; negative” (Strain/Indicator: TA98, Metabolic Activation: RAT, LIVER, S-9, AROCLOR 1254 (10%), Method: PREINCUBATION); “inactive; negative” (Strain/Indicator: TA98, Metabolic Activation: RAT, LIVER, S-9, AROCLOR 1254 (30%), Method: PREINCUBATION); “inactive; negative” (Strain/Indicator: TA100, Metabolic Activation: HAMSTER, LIVER, AROCLOR 1254 (10%), Method: PREINCUBATION); “inactive; negative” (Strain/Indicator: TA100, Metabolic Activation: HAMSTER, LIVER, S-9, AROCLOR 1254 (30%), Method: PREINCUBATION); “inactive; negative” under setting [2]; “inactive; negative” (Strain/Indicator: TA100, Metabolic Activation: RAT, LIVER, S-9, AROCLOR 1254 (10%), Method: PREINCUBATION). The mutagenic call (Strain/Indicator: TA100, Metabolic Activation: RAT, LIVER, S-9, AROCLOR 1254 (30%), Method: PREINCUBATION) was “inactive; negative”; the mutagenic call (Strain/Indicator: TA1535, Metabolic Activation: HAMSTER, LIVER, S-9, AROCLOR 1254 (10 OR 30%), Method: PREINCUBATION) was “inactive; negative”; the mutagenic call under setting [3] is “inactive; negative”; the mutagenic call (Strain/Indicator: TA1535, Metabolic Activation: RAT, LIVER, S-9, AROCLOR 1254 (10 OR 30%), Method: PREINCUBATION) was “inactive; negative”; the mutagenic call (Strain/Indicator: TA1537, Metabolic Activation: HAMSTER, LIVER, S-9, AROCLOR 1254 (10 OR 30%), Method: PREINCUBATION) was “inactive; negative”; the mutagenic call under setting [4] was “inactive; negative”. Further, the mutagenic call (Strain/Indicator: TA1537, Metabolic Activation: RAT, LIVER, S-9, AROCLOR 1254 (10 OR 30%), Method: PREINCUBATION) was “inactive; negative”.

On to `Nc1c(C(=O)O)cc([N+](=O)[O-])c2c1C(=O)c1ccccc1C2=O`, for which the mutagenic call runs as follows: (Strain/Indicator: TA98, Metabolic Activation: NONE, Method: STANDARD PLATE) “active; positive”; (Strain/Indicator: TA98, Metabolic Activation: RAT, LIVER, S-9, AROCLOR 1254, Method: STANDARD PLATE) “active; positive”; (Strain/Indicator: TA100, Metabolic Activation: NONE, Method: STANDARD PLATE) “active; positive”; (Strain/Indicator: TA100, Metabolic Activation: RAT, LIVER, S-9, AROCLOR 1254, Method: STANDARD PLATE) “active; positive”; (Strain/Indicator: TA1535, Metabolic Activation: NONE, Method: STANDARD PLATE) “inactive; negative”; (Strain/Indicator: TA1537, Metabolic Activation: NONE, Method: STANDARD PLATE) “active; positive”. In addition, the mutagenic call by setting is: (Strain/Indicator: TA1537, Metabolic Activation: RAT, LIVER, S-9, AROCLOR 1254, Method: STANDARD PLATE) “active; positive”; (Strain/Indicator: TA1538, Metabolic Activation: NONE, Method: STANDARD PLATE) “active; positive”; (Strain/Indicator: TA1538, Metabolic Activation: RAT, LIVER, S-9, AROCLOR 1254, Method: STANDARD PLATE) “active; positive”; (Strain/Indicator: TA1978, Metabolic Activation: NONE, Method: STANDARD PLATE) “active; positive”.
